Experimental data taken from publication PMC6522510 (Nature Communications, 2019).
Like-named read-outs stand apart in the source and are kept apart here.

Experiments:
Design in all cases: species or system AML cell lines (8); Primary HTS, single concentration about 10 uM, Cell Titer Glo viability; log10 luminescence, per cent inhibition relative to cycloheximide control
Settings in all cases: 72 h, inhibitor
[1] = test system: CHRF288-11
[2] = test system: CMK
[3] = test system: CMS
[4] = test system: M07e
[5] = test system: ML-2
[6] = test system: MOLM-13
[7] = test system: MV4-11
[8] = test system: U937
[9] = relative to cycloheximide control, log10 luminescence

| SMILES | CHRF288-11 %inh [1, 9] | CMK %inh [2, 9] | CMS %inh [3, 9] | M07e %inh [4, 9] | ML-2 %inh [5, 9] | MOLM-13 %inh [6, 9] | MV4-11 %inh [7, 9] | U937 %inh [8, 9] | CHRF288-11 %inh ([1]; 10 µM) | CMK %inh ([2]; 10 µM) | CMS %inh ([3]; 10 µM) | M07e %inh ([4]; 10 µM) | ML-2 %inh ([5]; 10 µM) | MOLM-13 %inh ([6]; 10 µM) | MV4-11 %inh ([7]; 10 µM) | U937 %inh ([8]; 10 µM) |
| --- | --- | --- | --- | --- | --- | --- | --- | --- | --- | --- | --- | --- | --- | --- | --- | --- |
| CC1(C)CC(n2cnc(-c3ccc(F)cc3)c2-c2ccnc(N)n2)CC(C)(C)N1 [SJ000573190-1, JB19236-188C1] | 9.345% | 5.841% | -2.621% | 10.18% | 5.936% | 0.169% | 1.547% | -2.021% |  |  |  |  |  |  |  |  |
| CC(C)c1ccc(Nc2nccc(-c3cnn4ncccc34)n2)cc1 [SJ000573192-1, U16419/190/2] | 27.16% | 58.79% | 101.8% | 49.73% | 59.67% | 111.4% | 84.54% | 82.47% |  |  |  |  |  |  |  |  |
| CCc1cccc(NC(=O)Nc2ccc(Oc3ccc4nc(NC(=O)OC)[nH]c4c3)cc2)c1 [SJ000573193-1, T229/79/1] | -2.602% | 50% | -0.1127% | 0.5293% | 5.896% | 61.84% | 84.23% | 3.761% |  |  |  |  |  |  |  |  |
| Cc1nnc(-c2ccc(C)c(-c3ccc(C(=O)Nc4cccc(C#N)c4)cc3)c2)o1 [SJ000573195-1, R4373/145/1] | -2.997% | 1.609% | -1.248% | -0.9532% | 2.033% | 1.779% | 0.5717% | -2.444% |  |  |  |  |  |  |  |  |
| COc1ccc2cc(-c3c(-c4ccncc4)nc(-c4ccc(S(C)(=O)=O)cc4C)n3C)ccc2c1 [SJ000573196-1, NJ44157-082B1] | 3.66% | 17.63% | 1.339% | -0.09869% | 0.1738% | 0.5598% | 2.69% | -1.98% |  |  |  |  |  |  |  |  |
| Fc1ccc(-c2c(-c3ccncc3)nc3n2CCS3)cc1 [SJ000573197-1, EXSB/CR-9802-49AZ] | 6.614% | 1.128% | 6.192% | 1.347% | 4.223% | -3.2% | 10.89% | 19.21% |  |  |  |  |  |  |  |  |
| CS(=O)(=O)Nc1ccc(-c2ccc3c(NC(=O)C4CC4)n[nH]c3c2)cc1 [SJ000573198-1, VB100064-183A1] | 1.64% | 0.4517% | -0.1456% | 7.577% | 1.388% | 0.3925% | 1.756% | -2.07% |  |  |  |  |  |  |  |  |
| CN(C)CCCNc1nccc(-c2c(-c3ccc(F)cc3)nn3cc(C(F)(F)F)ccc23)n1 [SJ000573200-1, U14929/105/1] | 4.716% | 6.318% | -0.7094% | 5.185% | 2.988% | 3.151% | 2.615% | 2.291% |  |  |  |  |  |  |  |  |
| CCN1CCC(C(=O)Nc2n[nH]c3nnc(-c4cccc(F)c4F)cc23)CC1 [SJ000573202-1, JW48822-155B0] | 19.17% | 106.6% | 98.67% | 22.9% | 2.893% | 18.95% | 52.48% | 29.66% |  |  |  |  |  |  |  |  |
| CCn1c(-c2nonc2N)nc2ccncc21 [SJ000573203-1, JS100940-045A1] | 39.85% | 40.02% | -0.06255% | -2.227% | 2.303% | 0.1335% | -1.945% | 1.08% |  |  |  |  |  |  |  |  |
| NS(=O)(=O)c1cccc(-c2ccc3c(NC(=O)C4CC4)n[nH]c3c2)c1 [SJ000573205-1, VB100064-175A1] | 4.666% | 1.524% | -2.181% | -1.196% | 8.415% | 11.82% | 1.069% | 7.36% |  |  |  |  |  |  |  |  |
| COC(=O)c1cncc(/C=C/c2c(C)cc(O)cc2C)c1 [SJ000573206-1, U12614/140/1] | 31.61% | 80.78% | 1.868% | 18.22% | 4.986% | 1.326% | 6.215% | 23.01% |  |  |  |  |  |  |  |  |
| CCCN(CCS(C)(=O)=O)Cc1ccc(-c2ccc3ncnc(Nc4ccc(OCc5cccc(F)c5)c(Cl)c4)c3c2)o1 [SJ000573207-1, U16419/108/1] | 4.347% | 1.892% | -1.914% | -0.08315% | 1.001% | 2.051% | 1.09% | 4.462% |  |  |  |  |  |  |  |  |
| CS(=O)(=O)CCNCc1nc(-c2ccc3ncnc(Nc4ccc(F)c(Cl)c4)c3c2)cs1 [SJ000573208-1, R2677/150/1] | 0.6669% | 3.345% | 3.363% | 1.192% | 0.9399% | 1.729% | 1.268% | -0.3412% |  |  |  |  |  |  |  |  |
| O=C(Nc1n[nH]c2nnc(-c3cccnc3)cc12)C1CC1 [SJ000573209-1, VB49227-069A2] |  |  |  |  |  |  |  |  | 36.24% | 119.5% | 99.51% | 20.82% | 10.24% | 58.37% | 53.21% | 14.39% |
| COc1ccc2ncnc(Nc3ccc(OCc4ccccc4)cc3)c2c1 [SJ000573210-1, 0142W 95C*D] | -3.911% | 1.162% | 0.3657% | -3.821% | -0.6695% | 13.25% | 1.39% | -0.1655% |  |  |  |  |  |  |  |  |
| CCn1c(-c2nonc2N)nc2cncc(C(=O)N3CC[C@H](N)C3)c21 [SJ000573211-1, MH203936-065A1] | 24.28% | 50.04% | 6.352% | 8.501% | 13.35% | 12.04% | 35.54% | 24.07% |  |  |  |  |  |  |  |  |
| CC1=C(C(=O)Nc2ccc3[nH]ncc3c2)C(c2ccc(F)cc2)NC(=O)N1 (stereo not shown) [SJ000573212-1, SD203460-064A1] | 14.28% | 22.73% | 3.347% | 2.046% | 7.379% | -1.98% | 13.33% | 0.2192% |  |  |  |  |  |  |  |  |
| O=C1Nc2ccc(-c3cccnc3)cc2C1=Cc1cc(Br)c(O)c(Br)c1 [SJ000573213-1, R10489/16/2] | 4.693% | 0.4308% | -1.986% | 2.589% | 4.287% | 4.678% | -0.07867% | -1.775% |  |  |  |  |  |  |  |  |
| CCNC(=O)O[C@H]1CN[C@H](C#Cc2cc3ncnc(Nc4ccc(OCc5cccc(F)c5)c(Cl)c4)c3s2)C1 [SJ000573214-1, U20348/125/4] | 5.639% | -1.307% | 3.079% | 3.561% | 3.073% | 0.5641% | 0.06144% | -0.8245% |  |  |  |  |  |  |  |  |
| O=C(O[C@H]1CN[C@H](C#Cc2cc3ncnc(Nc4ccc5c(cnn5Cc5ccccc5)c4)c3s2)C1)N1CCOCC1 [SJ000573215-1, U19635/172/2] | 51% | 78.93% | 5.16% | -0.8707% | 2.941% | 2.242% | 1.975% | 3.001% |  |  |  |  |  |  |  |  |
| COc1cccc(-n2ncc3c(N/N=C/c4cccc(F)c4)ncnc32)c1 [SJ000573217-1, U18028/186/1] | -0.7991% | -7.034% | 0.08051% | -2.637% | 0.8639% | -3.305% | -3.164% | -3.323% |  |  |  |  |  |  |  |  |
| COc1ccc2[nH]c3c4[nH]c5ccc(OC)cc5c4c4c(c3c2c1)C(=O)NC4=O [SJ000573218-1, 3744W 92C*D] | 13.67% | 26.51% | 16.49% | 25.27% | 9.324% | 81.75% | 76.35% | 14.28% |  |  |  |  |  |  |  |  |
